Assay results reported in patent publication US4489003A, “Imidazobenzodiazepines” (Hoffmann-La Roche Inc., priority 1982, dated 1984).

Tests used:
[1] = acute toxicity, single oral administration; conditions: rat, in vivo; single oral administration to rats
From the text: The results obtained with representative compounds of formula I in the experiments described earlier are compiled in the following Table. The Table also contains data concerning the acute toxcity of some of these compounds (LD50 in mg/kg following single oral administration to rats).

[2] = system: spasmodic seizures caused by pentetrazole; experiment: antipentetrazole test; assay type: in vivo; conditions: Rattus norvegicus, po, 0.5 h; female rats 60-80 g, p.o. 30 minutes before 120 mg/kg pentetrazole i.p.
Protocol: The central properties of the compounds of formula I provided by the present invention can be determinded, for example, in the antipentetrazole test which is described hereinafter and which is generally recognized for recording anticonvulsant properties.
In this animal experiment the compound under investigation is administered orally to female rats weighing 60-80 g and 30 minutes later there are administered intraperitoneally 120 mg/kg of pentetrazole which causes emprosthotonus and tonic stretchings of the fore and/or hind limbs in unprotected experimental animals 1 to 4 minutes after the injection. Ten experimental animals are used per dosage of test substance. After counting the protected experimental animals, the ED50 is determined according to the Probit method. The ED50 is that dosage which protects 50% of the experimental animals from the spasmodic seizures caused by pentetrazole.

[3] = system: sedative, muscle relaxant and motor coordination-disturbing activity caused by high dosages of diazepam; experiment: traction test (antagonism of diazepam); assay type: in vivo; conditions: Mus musculus, po, 0.25 h; mice, p.o. 15 minutes after 3 mg/kg diazepam i.p.
Protocol: In this animal experiment the ability of the test substances to antagonise the sedative, muscle relaxant and motor coordination-disturbing activity caused by high dosages of diazepam is determined.
Mice weighing 17-29 g are lifted by the tail and are allowed to grip a taut horizontal wire (length 15 cm, height 20 cm, diameter 1 mm) with the front paws, whereupon the experimental animals are released. Untreated control animals are capable of gripping the wire with both front paws and at least one hind paw within 3 seconds. If 3 mg/kg of diazepam are administered intraperitoneally to the experimental animals, then their aforementioned capabilities disappear, i.e. they are no longer capable of gripping the taut horizontal wire within 3 seconds with both front paws and at least one hind paw. 15 minutes after the administration of diazepam the compound under investigation is administered orally to the experimental animals, whereupon there are counted those animals which have regained the aforementioned capabilities. The ED50 is that dosage which in 50% of the experimental animals antagonizes the action of diazepam, i.e. counteracts this.

[4] = molecular target: central benzodiazepine receptors; experiment: inhibition of the binding of tritiated diazepam at the specific benzodiazepine receptors in the cerebral cortex; conditions: [3H]diazepam
Protocol: The affinity of compounds of general formula I to the central benzodiazepine receptors was determined according to the method described in Life Science 20, 2101-2110 (1977) and Science 198, 849-851 (1977). According to this method, the inhibition of the binding of tritiated diazepam at the specific benzodiazepine receptors in the cerebral cortex by the respective test substances is ascertained. The IC50 ("50% inhibiting concentration") is that concentration of the respective test substance which brings about a 50 percent inhibition of the specific binding of the tritiated diazepam at the specific benzodiazepine receptors in the cerebral cortex.

| SMILES | LD50 [1] | ED50 [2] | ED50 [3] | IC50 [4] |
| --- | --- | --- | --- | --- |
| O=C(OCC1CC1)c1ncn2c1[C@@H]1CCCN1C(=O)c1c(Cl)cccc1-2 | 1000 to 2000 mg/kg | 0.66 mg/kg | 0.8 mg/kg | 2.3 µM |
| O=C(OC1CCCCC1)c1ncn2c1[C@@H]1CCCN1C(=O)c1c(Br)cccc1-2 | > 5000 mg/kg | 7 mg/kg | < 30 mg/kg | 2.7 µM |
| O=C(OCC1CC1)c1ncn2c1[C@@H]1CCCN1C(=O)c1c(Br)cccc1-2 | 625 to 1250 mg/kg | 0.63 mg/kg | < 30 mg/kg | 2.6 µM |
| O=C(OCc1ccccc1)c1ncn2c1[C@@H]1CCCN1C(=O)c1c(Cl)cccc1-2 |  | > 100 mg/kg | 0.09 mg/kg | 1.5 µM |
| O=C(OCC1CC1)c1ncn2c1[C@@H]1CCN1C(=O)c1c(Cl)cccc1-2 |  | 0.27 mg/kg | < 30 mg/kg | 1.1 µM |
| O=C(OC1CCCCC1)c1ncn2c1[C@@H]1CCCN1C(=O)c1c(I)cccc1-2 | > 5000 mg/kg | 2.2 mg/kg | > 30 mg/kg | 2.1 µM |
| C#CCOC(=O)c1ncn2c1[C@@H]1CCCN1C(=O)c1c(Cl)cccc1-2 [Example 27, 2-propynyl (S)-8-chloro-11,12,13,13a-tetrahydro-9-oxo-9H-imidazo[1,5-a]pyrrolo[2,1-c][1,4]benzodiazepine-1-carboxylate] |  | > 100 mg/kg | 0.005 mg/kg | 2.1 µM |
